Test results reported in patent US20190070128A1, “USE OF CANNABIDIVARIN IN THE TREATMENT OF AUTISM SPECTRUM DISORDER, ASSOCIATED DISORDERS AND SCHIZOPHRENIA” (GW Research Limited, priority 2016, published 2019).

Assays:
MeCP2 KO mice [1] = assay: survival of MeCP2 KO and WT mice; assay type: in vivo, mouse; settings: for survival rate: vehicle 25%
Procedure: CBDV was administered daily at the dose of 2, 20 and 200 mg/kg i.p. starting from PND 28 and the following signs were scored every other day: hindlimb clasping (indication of motor imbalance), tremor, gait (measure of coordination), breathing, mobility and general condition.
The CBDV was dissolved in ethanol, cremophor and saline (1:1:18).
(§1) Starting from PND 28, mice received a daily intraperitoneal injection of CBDV (or vehicle) at the dose of 2, 20 and 200 mg/kg. Animals were then scored every other day to evaluate the effect of CBDV treatment on motor symptoms (hindlimb clasping, gait, mobility) as well as neurological signs and general conditions (breathing abnormalities, tremors and general condition) present in MeCP2 knockout (KO) mice.

[2] = biological target: T1, CB1 cannabinoid receptors (Mus musculus, UniProt P47746); settings: MF1 mouse brain membranes; extract compared with purified CBDV; cited from earlier work
T1 construct: in both MF1 mouse brain and hCB1-CHO cell membranes; from tissue; host or cells: MF1 mouse brain membranes

hCB1 = hCB1 (Homo sapiens, UniProt P21554); design: expressed in transfected cells; host or cells: CHO cells expressing hCB1 (membranes); settings: hCB1-CHO cell membranes; extract compared with purified CBDV; cited from earlier work
[3] = tested on: neuroinflammatory markers (GFAP, CD11b, TNF-α); assay: neuroinflammation studies, hippocampus, Western blotting, prenatal VPA model; assay type: in vivo, rat
Procedure: At the end of the study, on PND 59, male rats treated with CBDV 20 mg/kg i.p. were sacrificed and the hippocampus was collected 24 hours after the last CBDV injection and stored at −80° C. for evaluation of changes in protein expression of components of the endocannabinoid system (CB1 and CB2 receptors, the endocannabinoid degrading enzymes, FAAH and MAGL and the synthetic enzymes, DAGLα and NAPE-PLD); neuroinflammatory markers (GFAP (astrocytic marker), Iba1 (microglial marker), CD11 b (activated microglial marker), TNF-α (proinflammatory cytokine) and iNOS (inflammatory mediator)); synaptic markers (Synaptophysin (synaptic vesicle protein), PSD-95 (post synaptic density protein) and the neurotrophins, BDNF and IGF by Western blotting.

MeCP2 KO mice [4] = assay: symptom scoring in MeCP2 KO mice; assay type: in vivo, mouse
Procedure: as §1
Each of the six symptoms was scored from 0 to 2 (0 corresponds to the symptom being absent or the same as in the wild type (WT) animal; 1 when the symptom was present; 2 when the symptom was severe).
Mobility: the mouse is observed when placed on bench, then when handled gently. 0 =as WT. 1=reduced movement when compared with WT: extended freezing period when first placed on bench and longer periods spent immobile. 2=no spontaneous movement when placed on the bench; mouse can move in response to a gentle prod or a food pellet placed nearby.
Gait: 0=as WT. 1=hind legs are spread wider than WT when walking or running with reduced pelvic elevation, resulting in a ‘waddling’ gait. 2=more severe abnormalities: tremor when feet are lifted, walks backward or ‘bunny hops’ by lifting both rear feet at once.
Hindlimb clasping: mouse observed when suspend by holding base of the tail. 0=legs splayed outward. 1=hindlimbs are drawn toward each other (without touching) or one leg is drawn into the body. 2=both legs are pulled in tightly, either touching each other or touching the body.
Tremor: mouse observed while standing on the flat palm of the hand. 0=no tremor. 1=intermittent mild tremor. 2=continuous tremor or intermittent violent tremor.
Breathing: movement of flanks observed while animal is standing still. 0=normal breathing. 1=periods of regular breathing interspersed with short periods of more rapid breathing or with pauses in breathing. 2=very irregular breathing-gasping or panting.
General condition: mouse observed for indicators of general well-being such as coat condition, eyes and body stance. 0=clean shiny coat, clear eyes, and normal stance. 1=eyes dull, coat dull/un-groomed, and somewhat hunched stance. 2=eyes crusted or narrowed, piloerection, and hunched posture.

MeCP2 KO mice [5] = assay: Novel Object Recognition (NOR) test in MeCP2 KO mice; assay type: in vivo, mouse
Procedure: Furthermore, the efficacy of CBDV in reverting/attenuating the short- and long-term memory deficits present in these mice was evaluated. The Novel Object Recognition (NOR) test was performed before the starting of the treatment Post Natal Day 28 (PND 28), at PND 41 when the first motor symptoms appear and at PND 56 and 66 when the disease is fully manifested.
At PND 28, 41, 56 and 66 the effect of CBDV on short- and long-term memory deficits was investigated through the Novel Object Recognition (NOR) test.
The experimental apparatus used for the Novel Object Recognition test was an open-field box (43×43×32 cm) made of Plexiglas, placed in a dimly illuminated room. Animals performed each test individually.
Briefly, each animal was placed in the arena and allowed to explore two identical previously unseen objects for 10 minutes (familiarization phase). After an inter-trial interval of 30 minutes and 24 hours one of the two familiar objects was replaced by a novel, previously unseen object and mice were returned to the arena for the 10-minute test phase.
During the test phase the time spent exploring the familiar object (Ef) and the new object (En) was recorded separately by two observers blind to the groups and the discrimination index was calculated as follows: [(En−Ef)/(En+Ef)]×100.

T1 sequence (P47746 whole entry): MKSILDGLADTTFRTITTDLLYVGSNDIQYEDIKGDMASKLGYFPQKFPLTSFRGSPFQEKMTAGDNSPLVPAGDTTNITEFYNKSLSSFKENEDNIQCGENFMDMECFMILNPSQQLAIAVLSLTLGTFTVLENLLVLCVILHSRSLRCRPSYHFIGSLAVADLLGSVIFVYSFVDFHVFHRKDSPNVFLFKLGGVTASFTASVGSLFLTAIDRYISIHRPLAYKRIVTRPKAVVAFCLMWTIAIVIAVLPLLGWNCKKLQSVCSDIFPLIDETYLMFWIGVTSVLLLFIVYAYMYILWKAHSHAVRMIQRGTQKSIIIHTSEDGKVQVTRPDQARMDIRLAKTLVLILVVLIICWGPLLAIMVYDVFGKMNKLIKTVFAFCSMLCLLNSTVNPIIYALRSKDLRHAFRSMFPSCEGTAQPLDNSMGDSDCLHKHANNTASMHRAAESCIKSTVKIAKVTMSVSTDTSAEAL
Sequence of hCB1 (P21554 whole entry): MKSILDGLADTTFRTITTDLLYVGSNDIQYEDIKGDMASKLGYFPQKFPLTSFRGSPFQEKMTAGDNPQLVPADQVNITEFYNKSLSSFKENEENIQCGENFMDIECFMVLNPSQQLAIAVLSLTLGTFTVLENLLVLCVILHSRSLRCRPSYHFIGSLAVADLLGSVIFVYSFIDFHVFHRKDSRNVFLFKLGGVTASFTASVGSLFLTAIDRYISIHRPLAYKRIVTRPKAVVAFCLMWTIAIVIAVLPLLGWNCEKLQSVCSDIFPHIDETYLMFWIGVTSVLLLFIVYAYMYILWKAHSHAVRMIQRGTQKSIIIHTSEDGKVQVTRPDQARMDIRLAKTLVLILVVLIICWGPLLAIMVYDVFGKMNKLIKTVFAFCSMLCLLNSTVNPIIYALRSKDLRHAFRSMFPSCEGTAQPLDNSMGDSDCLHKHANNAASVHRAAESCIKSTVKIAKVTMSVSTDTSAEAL

C=C(C)[C@@H]1CCC(C)=C[C@H]1c1c(O)cc(CCC)cc1O [CBDV, Cannabidivarin]
survival rate (MeCP2 KO mice [1]; MeCP2 KO mice, 2 mg/kg): 62.5% | survival rate (MeCP2 KO mice [1]; MeCP2 KO mice, 20 mg/kg): 62.5% | survival rate (MeCP2 KO mice [1]; MeCP2 KO mice, 200 mg/kg): 75% | survival measured at PND 67 (MeCP2 KO mice [1]; MeCP2 KO mice, all three doses (2, 20, 200 mg/kg)): increase survival | lethality (MeCP2 KO mice [1]; WT mice treated with CBDV): No lethality | affinity for CB1 cannabinoid receptors [2]: neither bound with high enough affinity | affinity for CB1 cannabinoid receptors (hCB1): neither bound with high enough affinity | expression of increased inflammatory markers (GFAP, CD11b, TNFα) in hippocampus ([3]; VPA-exposed male rats, chronic CBDV 20 mg/kg i.p.): completely normalised | expression of inflammatory markers in hippocampus ([3]; control rats, chronic CBDV): no effect | mobility (MeCP2 KO mice [4]): reached statistical significance only at PND 64 | breathing (MeCP2 KO mice [4]; 2 mg/kg, PND 56 to 60): significantly improve | tremors (MeCP2 KO mice [4]; 2 mg/kg, PND 63): still protective | total symptom score (MeCP2 KO mice [4]; 2 mg/kg, every time point (PND 45, 47, 49, 55, 56, 57, 58, 60 and 64)): significantly improved | general conditions (coat and eyes conditions) (MeCP2 KO mice [4]; 20 mg/kg, PND 52): significantly effective only at the earlier time point | hindlimb clasping (MeCP2 KO mice [4]; 200 mg/kg): did not significantly affect | gait (MeCP2 KO mice [4]; 200 mg/kg, PND 53 to 57): significantly improved | tremors (MeCP2 KO mice [4]; 200 mg/kg, PND 55 and 63): still able to reduce tremors | breathing (MeCP2 KO mice [4]; 200 mg/kg, PND 57 and 60): effective | total symptom score (MeCP2 KO mice [4]; 200 mg/kg, from PND 47 until PND 58): beneficial effect | general conditions (coat and eyes conditions) (MeCP2 KO mice [4]; 2 and 200 mg/kg, PND 52-64): significantly improved | tremors (MeCP2 KO mice [4]; all three doses, PND 45-49): significantly delaying and reducing | total symptom score: appearance of the phenotype (MeCP2 KO mice [4]; all three doses, vs KO-vehicle): delay and attenuate | hindlimb clasping (MeCP2 KO mice [4]; lower doses, PND 47 and 49): significantly attenuate | cognitive impairment in short-term memory (MeCP2 KO mice [5]; MeCP2 KO mice, 2, 20 and 200 mg/kg, each time point (PND 41, 56, 66), 30 minutes interval): significantly reverted | cognitive impairment in long-term memory (MeCP2 KO mice [5]; MeCP2 KO mice, all three doses, 24 hours interval): significantly counteract | recognition memory (long-term) (MeCP2 KO mice [5]; WT littermates): without affecting | recognition memory (short-term) (MeCP2 KO mice [5]; WT littermates): without affecting
